Earlier results on 2 compounds are cited in patent publication US9630918B2, “Cysteine, N-acetylcysteine, and penicillamine related compounds, pharmaceutical compositions thereof, and methods of use” (priority 2015, dated 2017).

One data set has as its system stable COPD. The settings on record: patients with stable COPD, clinical study.
Assay in data set [1]: not given
The source holds these as a separate data set.

Consider `CC(=O)N[C@@H](CS)C(=O)O` [NAC, N-Acetyl-L-cysteine], for which the oral bioavailability is 4-10%. For the same compound, in the data set with stable COPD, the exacerbation frequency result was “decrease exacerbation frequency” and the small airways function entry is recorded as “improve small airways function”.
Consider `CC(C)(S)[C@@H](N)C(=O)O` [D-penicillamine, D-Penicillamine], for which the interpatient oral variability entry in data set [1] is recorded as “high degree of interpatient oral variability”.
